Data reported in PubChem BioAssay AID2060347 (Molecular Pharmacology Branch, DTP, NCI, 2025).

Tested on: 817829-284-R-J1-PDC spheroids with HUVEC/MSC, viability
Assay: Anticancer human tumor 817829-284-R-J1-PDC patient-derived colon adenocarcinoma cell line growth inhibition [TAK]
Details: for IC50: curve of first compound; for viability, T/C: stronger effect = lower value
Outline: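 Drug combinations, each paired with TAK-243 or ipatasertib, were tested on multi-cell spheroids of 60% malignant cells, 25% HUVEC and 15% hMSC. Top concentrations were at or near the clinical Cmax (10 microM if undetermined), decreasing by half-log; viability is given as % test/control.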

[1] = second compound 0.3 µM, first compound 0.0316 µM
[2] = second compound 0.3 µM, first compound 0.1 µM
[3] = second compound 0.3 µM, first compound 0.316 µM
[4] = second compound 0.3 µM, first compound 1 µM
[5] = second compound 0.3 µM, first compound 3.16 µM
[6] = second compound 0.3 µM, first compound 10 µM
[7] = second compound 0.949 µM, first compound 0.0316 µM
[8] = second compound 0.949 µM, first compound 0.1 µM
[9] = second compound 0.949 µM, first compound 0.316 µM
[10] = second compound 0.949 µM, first compound 1 µM
[11] = second compound 0.949 µM, first compound 3.16 µM
[12] = second compound 0.949 µM, first compound 10 µM
[13] = second compound 3 µM, first compound 0.0316 µM
[14] = second compound 3 µM, first compound 0.1 µM
[15] = second compound 3 µM, first compound 0.316 µM
[16] = second compound 3 µM, first compound 1 µM
[17] = second compound 3 µM, first compound 3.16 µM
[18] = second compound 3 µM, first compound 10 µM
[19] = second compound 9.49 µM, first compound 0.0316 µM
[20] = second compound 9.49 µM, first compound 0.1 µM
[21] = second compound 9.49 µM, first compound 0.316 µM
[22] = second compound 9.49 µM, first compound 1 µM
[23] = second compound 9.49 µM, first compound 3.16 µM
[24] = second compound 9.49 µM, first compound 10 µM
[25] = second compound 30 µM, first compound 0.0316 µM
[26] = second compound 30 µM, first compound 0.1 µM
[27] = second compound 30 µM, first compound 0.316 µM
[28] = second compound 30 µM, first compound 1 µM
[29] = second compound 30 µM, first compound 3.16 µM
[30] = second compound 30 µM, first compound 10 µM
[31] = second compound 0.3 µM, first compound 0.00316 µM
[32] = second compound 0.3 µM, first compound 0.01 µM
[33] = second compound 0.949 µM, first compound 0.00316 µM
[34] = second compound 0.949 µM, first compound 0.01 µM
[35] = second compound 3 µM, first compound 0.00316 µM
[36] = second compound 3 µM, first compound 0.01 µM
[37] = second compound 9.49 µM, first compound 0.00316 µM
[38] = second compound 9.49 µM, first compound 0.01 µM
[39] = second compound 30 µM, first compound 0.00316 µM
[40] = second compound 30 µM, first compound 0.01 µM

CC(C)(C)c1nc(-c2cccc(NS(=O)(=O)c3c(F)cccc3F)c2F)c(-c2ccnc(N)n2)s1 + CC(C)NCC(C(=O)N1CCN(c2ncnc3c2C(C)CC3O)CC1)c1ccc(Cl)cc1
IC50 (second compound 0.3 µM): 0.11 µM | IC50 (second compound 0.949 µM): < 0.0316 µM | IC50 (second compound 3 µM): < 0.0316 µM | IC50 (second compound 9.49 µM): < 0.0316 µM | IC50 (second compound 30 µM): < 0.0316 µM | viability, T/C [1]: 77.1% | viability, T/C [2]: 52.1% | viability, T/C [3]: 27.6% | viability, T/C [4]: 18% | viability, T/C [5]: 20% | viability, T/C [6]: 40.6% | viability, T/C [7]: 27.6% | viability, T/C [8]: 31.9% | viability, T/C [9]: 22.4% | viability, T/C [10]: 15.3% | viability, T/C [11]: 15.6% | viability, T/C [12]: 20.1% | viability, T/C [13]: 15.9% | viability, T/C [14]: 16.9% | viability, T/C [15]: 13.4% | viability, T/C [16]: 11.1% | viability, T/C [17]: 11% | viability, T/C [18]: 13.7% | viability, T/C [19]: 9.35% | viability, T/C [20]: 10.3% | viability, T/C [21]: 9.8% | viability, T/C [22]: 7.09% | viability, T/C [23]: 6.36% | viability, T/C [24]: 9.46% | viability, T/C [25]: 5.5% | viability, T/C [26]: 5.14% | viability, T/C [27]: 5.38% | viability, T/C [28]: 3.29% | viability, T/C [29]: 3.24% | viability, T/C [30]: 4.85%

CC(C)n1nc(-c2ccc3oc(N)nc3c2)c2c(N)ncnc21 + CC(C)NCC(C(=O)N1CCN(c2ncnc3c2C(C)CC3O)CC1)c1ccc(Cl)cc1
IC50 (second compound 0.3 µM): 0.015 µM | IC50 (second compound 0.949 µM): 0.00151 µM | IC50 (second compound 3 µM): < 0.000316 µM | IC50 (second compound 9.49 µM): < 0.000316 µM | IC50 (second compound 30 µM): < 0.000316 µM | viability, T/C (second compound 0.3 µM, first compound 0.000316 µM): 95.8% | viability, T/C (second compound 0.3 µM, first compound 0.001 µM): 97.5% | viability, T/C [31]: 81.4% | viability, T/C [32]: 62.4% | viability, T/C [1]: 29.9% | viability, T/C [2]: 18% | viability, T/C (second compound 0.949 µM, first compound 0.000316 µM): 62% | viability, T/C (second compound 0.949 µM, first compound 0.001 µM): 63.8% | viability, T/C [33]: 26.7% | viability, T/C [34]: 20.4% | viability, T/C [7]: 14.1% | viability, T/C [8]: 9.37% | viability, T/C (second compound 3 µM, first compound 0.000316 µM): 17.9% | viability, T/C (second compound 3 µM, first compound 0.001 µM): 22.1% | viability, T/C [35]: 14.9% | viability, T/C [36]: 10.1% | viability, T/C [13]: 9.06% | viability, T/C [14]: 7.73% | viability, T/C (second compound 9.49 µM, first compound 0.000316 µM): 9.8% | viability, T/C (second compound 9.49 µM, first compound 0.001 µM): 12.5% | viability, T/C [37]: 7.29% | viability, T/C [38]: 7.54% | viability, T/C [19]: 4.98% | viability, T/C [20]: 4.87% | viability, T/C (second compound 30 µM, first compound 0.000316 µM): 6.54% | viability, T/C (second compound 30 µM, first compound 0.001 µM): 6.66% | viability, T/C [39]: 5.92% | viability, T/C [40]: 3.93% | viability, T/C [25]: 3.59% | viability, T/C [26]: 3.29%

CCCS(=O)(=O)Nc1ccc(F)c(C(=O)c2c[nH]c3ncc(-c4ccc(Cl)cc4)cc23)c1F + CC(C)NCC(C(=O)N1CCN(c2ncnc3c2C(C)CC3O)CC1)c1ccc(Cl)cc1
IC50 (second compound 0.3 µM): 1.9 µM | IC50 (second compound 0.949 µM): < 0.316 µM | IC50 (second compound 3 µM): < 0.316 µM | IC50 (second compound 9.49 µM): < 0.316 µM | IC50 (second compound 30 µM): < 0.316 µM | viability, T/C [3]: 78.3% | viability, T/C [4]: 66.9% | viability, T/C [5]: 38% | viability, T/C [6]: 12.7% | viability, T/C (second compound 0.3 µM, first compound 31.6 µM): 20% | viability, T/C (second compound 0.3 µM, first compound 100 µM): 46.3% | viability, T/C [9]: 29.6% | viability, T/C [10]: 26.4% | viability, T/C [11]: 20.5% | viability, T/C [12]: 10.8% | viability, T/C (second compound 0.949 µM, first compound 31.6 µM): 5.67% | viability, T/C (second compound 0.949 µM, first compound 100 µM): 17.3% | viability, T/C [15]: 18.5% | viability, T/C [16]: 14.3% | viability, T/C [17]: 11.6% | viability, T/C [18]: 4.96% | viability, T/C (second compound 3 µM, first compound 31.6 µM): 1.71% | viability, T/C (second compound 3 µM, first compound 100 µM): 12.3% | viability, T/C [21]: 9.5% | viability, T/C [22]: 7.83% | viability, T/C [23]: 7.41% | viability, T/C [24]: 2.4% | viability, T/C (second compound 9.49 µM, first compound 31.6 µM): 0.86% | viability, T/C (second compound 9.49 µM, first compound 100 µM): 7.59% | viability, T/C [27]: 5.18% | viability, T/C [28]: 5.41% | viability, T/C [29]: 2.16% | viability, T/C [30]: 0.51% | viability, T/C (second compound 30 µM, first compound 31.6 µM): 0.2% | viability, T/C (second compound 30 µM, first compound 100 µM): 1.89%

COc1c(OCCCN2CCOCC2)ccc2c3n(c(=NC(=O)c4cnc(N)nc4)nc12)CCN3 + CC(C)NCC(C(=O)N1CCN(c2ncnc3c2C(C)CC3O)CC1)c1ccc(Cl)cc1
IC50 (second compound 0.3 µM): 0.00827 µM | IC50 (second compound 0.949 µM): < 0.00316 µM | IC50 (second compound 3 µM): < 0.00316 µM | IC50 (second compound 9.49 µM): < 0.00316 µM | IC50 (second compound 30 µM): < 0.00316 µM | viability, T/C [31]: 64.6% | viability, T/C [32]: 47% | viability, T/C [1]: 23.3% | viability, T/C [2]: 8.89% | viability, T/C [3]: 2.93% | viability, T/C [4]: 2.83% | viability, T/C [33]: 20.2% | viability, T/C [34]: 10.4% | viability, T/C [7]: 8.85% | viability, T/C [8]: 4.57% | viability, T/C [9]: 1.95% | viability, T/C [10]: 1.97% | viability, T/C [35]: 7.34% | viability, T/C [36]: 4.51% | viability, T/C [13]: 3.03% | viability, T/C [14]: 2.24% | viability, T/C [15]: 1.67% | viability, T/C [16]: 1.29% | viability, T/C [37]: 5.41% | viability, T/C [38]: 3.12% | viability, T/C [19]: 2.03% | viability, T/C [20]: 2.04% | viability, T/C [21]: 1.13% | viability, T/C [22]: 1.28% | viability, T/C [39]: 3.31% | viability, T/C [40]: 1.8% | viability, T/C [25]: 1.37% | viability, T/C [26]: 1.05% | viability, T/C [27]: 0.7% | viability, T/C [28]: 0.47%

Cc1nc(NC(=O)N2CCCC2C(N)=O)sc1-c1ccnc(C(C)(C)C(F)(F)F)c1 (stereo not given) + CC(C)NCC(C(=O)N1CCN(c2ncnc3c2C(C)CC3O)CC1)c1ccc(Cl)cc1
IC50 (second compound 0.3 µM): 1.19 µM | IC50 (second compound 0.949 µM): 0.0762 µM | IC50 (second compound 3 µM): < 0.0316 µM | IC50 (second compound 9.49 µM): < 0.0316 µM | IC50 (second compound 30 µM): < 0.0316 µM | viability, T/C [1]: 87.9% | viability, T/C [2]: 80.6% | viability, T/C [3]: 74.8% | viability, T/C [4]: 51.9% | viability, T/C [5]: 37% | viability, T/C [6]: 33.1% | viability, T/C [7]: 61.8% | viability, T/C [8]: 48.5% | viability, T/C [9]: 28.4% | viability, T/C [10]: 26.7% | viability, T/C [11]: 14.4% | viability, T/C [12]: 8.03% | viability, T/C [13]: 18.1% | viability, T/C [14]: 17% | viability, T/C [15]: 13.2% | viability, T/C [16]: 6.56% | viability, T/C [17]: 6.29% | viability, T/C [18]: 5.54% | viability, T/C [19]: 9.9% | viability, T/C [20]: 9.69% | viability, T/C [21]: 8.57% | viability, T/C [22]: 5.76% | viability, T/C [23]: 3.41% | viability, T/C [24]: 2.85% | viability, T/C [25]: 6.53% | viability, T/C [26]: 6.06% | viability, T/C [27]: 4.67% | viability, T/C [28]: 3.84% | viability, T/C [29]: 2.64% | viability, T/C [30]: 1.58%
